The target in series [1] is T1, recombinant human mu opioid receptor (Homo sapiens (Human), UniProt P35372). In kind it is binding. How it is done: (§1) Using conventional receptor binding assay techniques, several molecules were assayed to determine binding activity at kappa, mu and delta opioid subtypes of opioid receptors.
(§2) Cells were plated in 24 well plates at a density of 0.2-0.3*10^6 cells/well and washed with assay buffer containing 50 mM Tris.HCl and 5 mM MgCl2 (pH 7.4). Competition binding assays were conducted in whole cells incubated with increasing concentrations of test compounds in the presence of appropriate concentration of radioligand. 0.5 nM ^3H Naloxone, 0.5 nM ^3H Diprenorphine and 0.5 nM ^3H DPDPE were used as the competing radioligands for mu, kappa and delta receptors respectively. Incubations were carried out for two hours at room temperature using triplicate wells at each concentration. At the end of the incubation, cells were washed with 50 mM Tris HCl (pH 8.0), solubilized with NaOH and bound radioactivity was measured using a scintillation counter.
(§3) Specific binding is determined by subtraction of the cpm bound in the presence of 50-100× excess of cold ligand. Binding data assays were analyzed using GraphPad Prism 4.0 and IC50 is generated by non-linear regression from dose-response curves.

The target of series [2] is recombinant human delta opioid receptor (Homo sapiens (Human), UniProt P41143). Particulars: Ki relative to nalbuphine. How it is done:
as §1, §2, §3

Series [3] in a line: in vivo. The conditions noted are these: male, Sprague-Dawley, rat, plasma, iv, 1 mg/kg.
The nature of series [4]: in vivo. Particulars: male, Sprague-Dawley, rat, plasma, 5 mg/kg.
The nature of series [5]: Oral pharmacokinetics in Sprague-Dawley rats. Particulars: male, rat, plasma, 5 mg/kg.
The target in series [6] is cloned human mu opioid receptor (Homo sapiens (Human), UniProt P35372). The series is described as follows: cell-based. How it is done:
(§4) The efficacy of the various PEG-opioid conjugates was measured by their ability to inhibit cAMP formation following receptor activation. Studies were conducted in CHO cells heterologously expressing the cloned human mu, kappa or delta opioid receptors. cAMP was measured using a cAMP HiRange homogenous time-resolved fluorescence assay (HTRF Assay), that is based on a competitive immunoassay principle (Cisbio, Cat.#62AM6PEC).
(§5) Briefly, suspensions of cells expressing either the mu, kappa or delta opioid receptors were prepared in buffer containing 0.5 mM isobutyl-methyl xanthine (IBMX). […] EC50 values were calculated for each compound from a sigmoidal dose-response plot of concentrations versus maximum response. To determine if the compounds behaved as full or partial agonists in the system, the maximal response at the highest tested concentrations of compounds were compared to that produced by a known full agonist.

Series [7] is described as follows: Intravenous pharmacokinetics in Sprague-Dawley rats.
Series [8] concerns the target T1, recombinant human mu opioid receptor. In kind it is binding. How it is done: (§6) Radioligand displacement was measured using scintillation proximity assays (SPA).
(§7) Briefly, serial dilutions of the test compounds were placed in a 96-well plate to which were added SPA beads, membrane and radioligand. The assay conditions for each opioid receptor subtype are described in Table 10 below. The plates were incubated for 8 hours-overnight at room temperature, spun at 1000 rpm to pellet the SPA beads, and radioactivity was measured using the TopCount® microplate Scintillation counter. Specific binding at each concentration of test compound was calculated by subtracting the non-specific binding measured in the presence of excess cold ligand. IC50 values were obtained by non-linear regression of specific binding versus concentration curves and Ki values were calculated using Kd values that were experimentally pre-determined for each lot of membrane preparations.
This is another data set of the same source.

For series [9], the target named is recombinant human kappa opioid receptor (Homo sapiens (Human), UniProt P41145). In kind it is binding. How it is done:
as §6, §7

Series [10] deals with cloned human kappa opioid receptor (Homo sapiens (Human), UniProt P41145). It is filed as cell-based. How it is done:
as §4, §5

The mark [11] stands for this setting: inhibition of cAMP formation, 3 μM forskolin, CHO cells.
[12] abbreviates: male, Sprague-Dawley, rat, plasma, iv, 1 mg/kg.
[13] abbreviates: SPA, CHO-K1 membranes, [3H]DAMGO 6 nM.
[14] abbreviates: inhibition of cAMP formation, maximal response vs known full agonist.
Where [15] appears, read: hydroxycodone series, IV 1 mg/kg, rats, Mean ± SD.

This is an account of results in patent US9233167B2, “Oligomer-opioid agonist conjugates” (NEKTAR THERAPEUTICS, priority 2007, dated 2016).

Like-named read-outs stand apart in the source and are kept apart here. Bounds are passed on as bounds.

Sequence of recombinant human delta opioid receptor (P41143 whole entry, looked up): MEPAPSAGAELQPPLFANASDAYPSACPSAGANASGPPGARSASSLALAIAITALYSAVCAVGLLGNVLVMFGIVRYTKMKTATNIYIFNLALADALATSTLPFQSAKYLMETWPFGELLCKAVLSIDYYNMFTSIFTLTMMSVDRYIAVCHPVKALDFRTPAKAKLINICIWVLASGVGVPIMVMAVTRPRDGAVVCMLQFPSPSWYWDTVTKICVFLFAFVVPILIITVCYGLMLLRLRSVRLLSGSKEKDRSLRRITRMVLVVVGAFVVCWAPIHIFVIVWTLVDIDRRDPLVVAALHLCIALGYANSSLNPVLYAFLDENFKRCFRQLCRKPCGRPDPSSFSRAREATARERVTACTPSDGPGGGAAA

Regarding `COCCOCCOCCOCCO[C@H]1CC[C@@]2(O)[C@H]3Cc4ccc(O)c5c4[C@@]2(CCN3CC2CCC2)[C@H]1O5` [6-O-mPEG4-Nalbuphine, 6-O-mPEG4-nalbuphine], in series [1], the “Fold vs Nalbuphine At MU” value is reported as 1.23. Moreover, the “Fold vs Nalbuphine At DELTA” value in series [2] is recorded as 0.47.
In “in vivo [3]”, `COc1ccc2c3c1O[C@H]1[C@@H](O)C=C[C@H]4[C@@H](C2)N(C)CC[C@@]341` [Codeine] had an AUC of 183 ng·h/mL, an AUC(0-inf) of 190 ng·h/mL, a Cmax of 469 ± 20.4 ng/mL and a mean residence time MRT last of 40.2 min. In the series “in vivo [3]”, this compound displayed a Vd of 4.14 ± 0.7 L/kg and a clearance of 89.7 ± 15.3 mL/min/kg. For the same compound, in “in vivo [4]” (oral), the bioavailability stood at 0.52%. Further, in the series “in vivo [4]” (po), the AUC was 5.47 ng·h/mL, the AUC(0-inf) was 7.18 ng·h/mL, the concentration peaked (Cmax) at 6.24 ± 2.51 ng/mL and the MRT last is 33.2 min. Also, the Tmax in series [5] was 15 min.
The compound `COc1ccc2c3c1O[C@H]1C(O)CC[C@@]4(O)[C@@H](C2)N(C)CC[C@]314` (stereo partly drawn) [Hydroxycodone, α-6-hydroxycodone, reference compound] registered an EC50 in [6] (setting [11]) of 3.16 µM.
With `COc1ccc2c3c1O[C@H]1C(=O)CC[C@@]4(O)[C@@H](C2)N(C)CC[C@]314` [Oxycodone, reference compound], the Emax in series [6] (CHO, read-out: MU OPIOID RECEPTOR % max effect) amounted to 95%. In addition, in series [5], the AUC is 75.3 ng·h/mL, the highest level (Cmax) was 25.5 ± 1.86 ng/mL, the MRT last was 179 min and the Tmax is 15 min. Also, in [7] (setting [12]), the AUC was 213 ng·h/mL, the AUC(0-inf) was 217 ng·h/mL, the highest level (Cmax) was 495 ± 56 ng/mL and the MRT last was 37 min. In series [7] (setting [12]), the clearance was 77.1 ± 6.26 mL/min/kg and the half-life was found to be 47 ± 3.99 min.
With `COCCOCCO[C@H]1CC[C@@]2(O)[C@H]3Cc4ccc(OC)c5c4[C@@]2(CCN3C)[C@H]1O5` [α-6-mPEG2-O-Hydroxycodone, α-6-mPEG2-O-hydroxycodone], the Ki in series [8] (setting [13]) was found to be 0.632 µM. A half-maximal effect in series [6] (setting [11]) (EC50) was put at 5 µM. Further, the “MU OPIOID RECEPTOR % max effect” value in series [6] (setting [14]) was 101%. In series [7] (setting [15]), this compound had an AUCall of 12000 ± 1610 ng·min/mL, an AUCinf of 12200 ± 1650 ng·min/mL, a CL of 83.3 ± 10.8 mL/min/kg and a Cmax of 513 ± 48.8 ng/mL. Moreover, in series [7] (setting [15]), the MRTlast came out at 37.0 ± 2.60 min, the “T1/2(z)” value was 44.6 ± 1.80 min and the Vss is recorded as 3.36 ± 0.298 L/kg.
For `COCCOCCOCCO[C@H]1CC[C@@]2(O)[C@H]3Cc4ccc(OC)c5c4[C@@]2(CCN3C)[C@H]1O5` [α-6-mPEG3-O-Hydroxycodone, α-6-mPEG3-O-hydroxycodone], in [8] (setting [13]), the Ki worked out at 0.775 µM. In series [6] (setting [11]), this compound showed an EC50 of 2.83 µM. Further, the “MU OPIOID RECEPTOR % max effect” value in series [6] (setting [14]) is listed as 108%. In series [7] (setting [15]), this compound had an AUCall of 13800 ± 1050 ng·min/mL, a CL of 71.7 ± 4.99 mL/min/kg, a Cmax of 746 ± 2.08 ng/mL and an MRTlast of 32.5 ± 1.92 min. Moreover, in series [7] (setting [15]), the “T1/2(z)” value came out at 48.5 ± 7.83 min and the Vss came out at 2.62 ± 0.206 L/kg.
Consider `COCCOCCOCCOCCOCCO[C@H]1CC[C@@]2(O)[C@H]3Cc4ccc(OC)c5c4[C@@]2(CCN3C)[C@H]1O5` [α-6-mPEG5-O-Hydroxycodone, α-6-mPEG5-O-hydroxycodone], for which the Ki in [8] (setting [13]) was found to be 1.86 µM. In series [6] (setting [11]), this compound came in with an EC50 of 5.04 µM. Moreover, the “MU OPIOID RECEPTOR % max effect” value in series [6] (setting [14]) is 108%. Besides, in series [7] (setting [15]), the AUCall was found to be 16900 ± 1800 ng·min/mL, the AUCinf worked out at 17700 ± 1990 ng·min/mL, the CL is on record as 57.0 ± 6.07 mL/min/kg and the MRTlast stood at 46.2 ± 1.86 min. Further, in [7] (setting [15]), the “T1/2(z)” value worked out at 62.1 ± 3.85 min and the Vss is given as 3.30 ± 0.184 L/kg.
Turning to `COCCOCCOCCOCCOCCOCCO[C@H]1CC[C@@]2(O)[C@H]3Cc4ccc(OC)c5c4[C@@]2(CCN3C)[C@H]1O5` [α-6-mPEG6-O-Hydroxycodone, α-6-mPEG6-O-hydroxycodone], in series [8] (setting [13]), the Ki was found to be 1.9 µM. In [6] (setting [11]), this compound yielded an EC50 of 12.5 µM. The “MU OPIOID RECEPTOR % max effect” value in series [6] (setting [14]) is 102%. In series [7] (setting [15]), this compound had an AUCall of 12600 ± 2370 ng·min/mL, an AUCinf of 13100 ± 2390 ng·min/mL, a CL of 77.9 ± 14.4 mL/min/kg and a Cmax of 445 ± 83.6 ng/mL. Besides, in series [7] (setting [15]), the MRTlast worked out at 47.7 ± 1.41 min, the “T1/2(z)” value is 62.2 ± 5.17 min and the Vss amounted to 4.68 ± 0.938 L/kg.
For `COCCOCCOCCOCCOCCOCCOCCO[C@H]1CC[C@@]2(O)[C@H]3Cc4ccc(OC)c5c4[C@@]2(CCN3C)[C@H]1O5` [α-6-mPEG7-O-Hydroxycodone, α-6-mPEG7-O-oxycodone], in series [8] (setting [13]), the Ki was 1.61 µM. For the same compound, the half-maximal effective concentration (EC50) in [6] (setting [11]) came out at 7.45 µM. Moreover, the “MU OPIOID RECEPTOR % max effect” value in [6] (setting [14]) is reported as 101%. Also, in series [7] (setting [15]), the AUCall amounted to 14300 ± 583 ng·min/mL, the AUCinf is 15800 ± 728 ng·min/mL, the CL is 63.3 ± 2.99 mL/min/kg and the Cmax amounted to 489 ± 26.5 ng/mL. Moreover, in series [7] (setting [15]), the MRTlast stood at 54.3 ± 0.372 min, the “T1/2(z)” value turned out to be 87.0 ± 3.25 min and the Vss amounted to 5.31 ± 0.139 L/kg.
For `COCCOCCOCCOCCOCCOCCOCCOCCOCCO[C@H]1CC[C@@]2(O)[C@H]3Cc4ccc(OC)c5c4[C@@]2(CCN3C)[C@H]1O5` [α-6-mPEG9-O-Hydroxycodone, α-6-mPEG9-O-hydroxycodone], the “mean t1/2 value as multiple of that of the parent molecule” value in [7] (IV 1 mg/kg, rats) is given as 3 times. In series [7] (setting [15]), this compound displayed an AUCall of 16600 ± 2190 ng·min/mL, an AUCinf of 21000 ± 4230 ng·min/mL, a CL of 48.9 ± 9.41 mL/min/kg and a Cmax of 955 ± 149 ng/mL. In series [7] (setting [15]), this compound yielded an MRTlast of 52.7 ± 4.04 min and a Vss of 6.35 ± 0.349 L/kg.
Turning to α-6-mPEG1-O-codeine, the Ki in series [9] is 54.7 µM. Moreover, the Ki in series [8] worked out at 1.82 µM. Moreover, in series [6], the EC50 was 8.57 µM and the “MU OPIOID RECEPTOR % max effect” value worked out at 80%. Also, the “KAPPA OPIOID RECEPTOR % max effect” value in series [10] is given as 51%.
On to α-6-mPEG2-O-codeine, for which the Ki in series [9] was determined as 22.6 µM. In series [8], the Ki amounted to 1.38 µM. In addition, in series [6], the EC50 came to 5.15 µM and the “MU OPIOID RECEPTOR % max effect” value turned out to be 75%. In series [10], the EC50 came out at 40.1 µM and the “KAPPA OPIOID RECEPTOR % max effect” value amounted to 59%.
As to α-6-mPEG4-O-codeine, in series [9], the Ki stood at 97 µM. Moreover, the Ki in series [8] was 2.89 µM. Also, in series [6], the EC50 was 22.1 µM and the “MU OPIOID RECEPTOR % max effect” value came out at 99%.
Turning to α-6-mPEG5-O-codeine, the Ki in series [9] is 59.1 µM. In [10], the “KAPPA OPIOID RECEPTOR % max effect” value was found to be 60%.
For the compound α-6-mPEG6-O-codeine, the results for the Ki in series [9] and in [8] were more than 160 µM and 14.2 µM, respectively. In series [6], this compound displayed an EC50 of 97.4 µM. Besides, the “MU OPIOID RECEPTOR % max effect” value in [6] was found to be 80%. In addition, the “KAPPA OPIOID RECEPTOR % max effect” value in [10] stood at 21%.
On to α-6-mPEG7-O-codeine, for which the Ki in series [8] came to 9.96 µM. In series [6], the EC50 came out at 44.7 µM and the “MU OPIOID RECEPTOR % max effect” value was 75%.
For α-6-mPEG9-O-codeine, in that order: 9.98 µM, 48.2 µM and 80%.
